For assay [1], the system named is Alopecurus japonicus. Briefly: Resistance index, ratio of ED50 for haloxyfop-R-methyl-resistant Alopecurus japonicus (Japanese foxtail) biotype Js-R to ED50 for haloxyfop-R-methyl-sensitive Alopecurus japonicus (Japanese foxtail) biotype Js-S. It is filed as functional.
Assay [2] deals with Alopecurus japonicus. The experiment in a line: Herbicidal activity against haloxyfop-R-methyl-sensitive Alopecurus japonicus (Japanese foxtail) biotype Js-S assessed as inhibition of shoot length after 14 days. In kind it is functional.
The test system of assay [3] is Alopecurus japonicus. The experiment in a line: Herbicidal activity against haloxyfop-R-methyl-resistant Alopecurus japonicus (Japanese foxtail) biotype Js-R assessed as inhibition of shoot length after 14 days. It is filed as functional.
For assay [4], the target named is ACCase (Alopecurus japonicus) (UniProt H9BT73). Briefly: Resistance index, ratio of I50 for ACCase in haloxyfop-R-methyl-resistant Alopecurus japonicus (Japanese foxtail) biotype Js-R to I50 for Acetyl-CoA carboxylase (ACCase) in haloxyfop-R-methyl-sensitive Alopecurus japonicus (Japanese foxtail) biotype Js-S.
In assay [5] the target is T1, ACCase (Alopecurus japonicus, UniProt H9BT73). Briefly: Inhibition of Acetyl-CoA carboxylase (ACCase) in haloxyfop-R-methyl-resistant Alopecurus japonicus (Japanese foxtail) biotype Js-R shoot extracts. The settings on record: read-out: I50.
Assay [6] deals with T1, ACCase. Briefly: Inhibition of Acetyl-CoA carboxylase (ACCase) in haloxyfop-R-methyl-sensitive Alopecurus japonicus (Japanese foxtail) biotype Js-S shoot extracts. The settings on record: read-out: I50.

As for `CCOC(=O)[C@@H](C)Oc1ccc(Oc2nc3ccc(Cl)cc3o2)cc1` [FENOXAPROP-P-ETHYL], in the assay on Alopecurus japonicus [1], the Ratio was determined as 11.35. In addition, the ED50 with Alopecurus japonicus [2] worked out at 0.114 mg/m2; in the assay with Alopecurus japonicus [3] it was 1.289 mg/m2.

As for `C#CCOC(=O)[C@@H](C)Oc1ccc(Oc2ncc(Cl)cc2F)cc1` [CLODINAFOP PROPARGYL], in the assay with Alopecurus japonicus [1], the Ratio is given as 5.84. The ED50 stood at 0.721 mg/m2 with Alopecurus japonicus [2] and 4.209 mg/m2 with Alopecurus japonicus [3].

For `CCOC(=O)[C@@H](C)Oc1ccc(Oc2cnc3cc(Cl)ccc3n2)cc1` [QUIZALOFOP-P-ETHYL], the Ratio in the assay on Alopecurus japonicus [1] came out at 35.87. The ED50 in the assay with Alopecurus japonicus [2] is listed as 0.426 mg/m2; in the assay on Alopecurus japonicus [3], 15.283 mg/m2.

Consider `CCCCOC(=O)[C@H](C)Oc1ccc(Oc2ccc(C#N)cc2F)cc1` [CYHALOFOP-BUTYL], for which the Ratio in the assay with Alopecurus japonicus [1] is given as 4.85. In addition, the results for the ED50 with Alopecurus japonicus [2] and in the assay on Alopecurus japonicus [3] were 0.144 mg/m2 and 0.698 mg/m2, respectively.

Take `CC(Oc1ccc(Oc2ncc(C(F)(F)F)cc2Cl)cc1)C(=O)O` (stereo not given) [HALOXYFOP]: the Ratio in assay [4] came to 10.8. Moreover, the results for the IC50 on ACCase [5] and on ACCase [6] were 28 nM and 2.6 nM, respectively.

(Values after ChEMBL document CHEMBL3046123, “Molecular bases for resistance to acetyl-coenzyme A carboxylase inhibitor in Japanese foxtail (Alopecurus japonicus)” (Pest Manag Sci, 2012).)
